{
  "source": "patent US20240156790A1",
  "about": "“COMPOUNDS, COMPOSITIONS, AND METHODS FOR MODULATING FERROPTOSIS AND TREATING EXCITOTOXIC DISORDERS” (THE TRUSTEES OF COLUMBIA UNIVERSITY IN THE CITY OF NEW YORK, priority 2018, published 2024)",
  "key": {"[1]": {"assay": "Microsomal stability, mouse liver microsomes (Table 1)", "format": "in vitro ADME, Mouse: CD1", "conditions": "liver microsomes", "description": "Each compound (1 μM) is incubated with mouse plasma, for 4 hours at 37° C., with shaking at 100 rpm. The concentration of compound in the buffer and plasma chambers is determined using LC-MS/MS. Metabolism of each compound is predicted using Sites of Metabolism (Schrodinger Suite), which combines intrinsic reactivity analysis (Hammett-Taft) with induced fit docking against 2C9, 2D6 and 3A4. This approach identifies 90% of known metabolism sites and has a false positive rate of 17%. The in vitro metabolic stability of each compound in mouse liver microsomes is determined. Pooled mouse liver microsomes are prepared and stored at −80° C. until needed. […]"}, "[2]": {"assay": "Microsomal stability, human liver microsomes (Table 1)", "format": "in vitro ADME", "conditions": "Human: Pooled, 50 donors; for half-life: liver microsomes, read-out: Microsomal Stability t1/2 (converted)"}, "HT-1080 cells [3]": {"system": "HT-1080 cells", "assay": "Rescue activity of Fer-1 analogs: inhibition of erastin-, IKE- or RSL3-induced death (Alamar Blue viability)", "format": "cell-based", "conditions": "Homo sapiens", "description": "HT-1080 cells are cultured in DMEM containing 10% fetal bovine serum, 1% supplemented non-essential amino acids and 1% pen/strep mixture (Gibco) and maintained in a humidified environment at 37° C. with 5% CO2 in a tissue culture incubator. 1,000 HT-1080 cells are seeded per well in duplicate 384-well plates (Corning) using a BioMek FX liquid handling robot (Beckman Coulter). The next day, the medium is replaced with 36 μL of medium containing 10 μM erastin with 4 μL of medium containing a dilution series (previously prepared) of DMSO, Fer-1 (positive control) or Fer-1 analogs. […] Cells are incubated a further 6 hours and then the Alamar Blue fluorescence intensity recorded using a Victor 3 platereader (PerkinElmer)(ex/em 530/590). All experiments are performed at least twice and the background (no cells)-subtracted Alamar Blue values for each combination are averaged between replicates. The same procedure was repeated by replacing erastin (10 μM) with IKE (3 μM) or RSL3 (0.2 μM)."}, "[4]": {"assay": "Microsomal stability, rat (Table 1)", "format": "in vitro ADME", "conditions": "Rat: Sprague Dawley; for half-life: liver microsomes, read-out: Microsomal Stability t1/2 (converted)"}, "[5]": {"assay": "Microsomal stability, dog (Table 1)", "format": "in vitro ADME", "conditions": "liver microsomes; Dog: Beagle; read-out: Microsomal Stability t1/2", "description": "Each compound (1 μM) is incubated with mouse plasma, for 4 hours at 37° C., with shaking at 100 rpm. The concentration of compound in the buffer and plasma chambers is determined using LC-MS/MS. Metabolism of each compound is predicted using Sites of Metabolism (Schrodinger Suite), which combines intrinsic reactivity analysis (Hammett-Taft) with induced fit docking against 2C9, 2D6 and 3A4. This approach identifies 90% of known metabolism sites and has a false positive rate of 17%. The in vitro metabolic stability of each compound in mouse liver microsomes is determined. Pooled mouse liver microsomes are prepared and stored at −80° C. until needed. Compound stability in liver microsomes is measured at 0, 15, 30, 45 and 60 minutes in duplicate, using LC-MS/MS analysis."}, "HT-1080 cells [6]": {"system": "HT-1080 cells", "assay": "Rescue activity of selected Fer-1 analogs, dose-response in HT-1080 cells (cell titer glo)", "format": "cell-based", "description": "Selected Fer-1 analogs containing a pyridine moiety (FIG. 4) were tested to examine their efficacy and overall potency in inhibiting ferroptosis. For each of these compounds, dose-response curves were generated in HT-1080 cells looking at the effectiveness of the molecules in inhibiting ferroptosis induced by either 3 μM IKE or 0.2 μM RSL3, Fer-1 was used as a positive control. For each dose-response curve, 1,000 cells/well were seeded in a 384 well plate and allowed to adhere overnight prior to treating with compound from a daughter plate. Cells were treated for 48 hours, unless otherwise noted, prior to viability being analyzed using cell titer glo (40 μL per well). All liquid handling was performed using the BioMek. All samples were prepared in triplicate, unless otherwise noted."}, "HT-1080 cells [7]": {"system": "HT-1080 cells", "assay": "Cell viability assays in HT-1080 cells, ferroptosis induced by IKE or RSL3 (Example 8)", "format": "cell-based", "conditions": "for IC50: Homo sapiens, HT-1080, 48 h", "description": "Cell culture assays were incubated at 37° C. with 5% CO2. HT-1080 cells were grown in DMEM (Corning) supplemented with 10% FBS (Life Technologies), 1% Penicillin-Streptomycin 10,000 U/mL (Gibco), and 1% MEM Non-Essential Amino Acids Solution 100× (Gibco). For cell viability assays, cells were trypsinized, counted, and seeded into 384-well white polypropylene plates at 1,000 cells/well, unless otherwise specified. After allowing cells to adhere overnight, compounds in DMSO stocks were arrayed in a 16-point dilution series prepared in a mother plate, and treated from a daughter plate, [DMSO]=0.28%. After 24 or 48 h, 50% CellTiter-Glo (Promega) 50% cell culture medium was added to each well and incubated at room temperature with shaking for 15 min. Luminescence was measured using a Victor X5 plate reader (PerkinElmer). All cell viability data were normalized to the DMSO vehicle condition. […] All 384w measurements were performed in triplicate\nWe first evaluated the efficacy of four pyridine analogs, TH-2-9-1, TH-2-31, TH-2-37-1, and TH-2-37-2, in suppressing ferroptosis induced by IKE and RSL3 in HT-1080 cells. […] We sought to determine whether incorporation of pyridine changed stability in mouse liver microsomes."}, "[8]": {"system": "HT-1080 fibrosarcoma cells", "conditions": "cited from earlier work"}, "[9]": {"conditions": "CD1, mouse, Mouse: CD1, read-out: Microsomal Stability t1/2"}, "[10]": {"conditions": "HT-1080, ^a 50% viability, HT-1080 cells treated with 10 μM erastin"}, "[11]": {"conditions": "HT-1080, ^b 50% viability, HT-1080 treated with 3 μM IKE"}, "[12]": {"conditions": "HT-1080, ^c 50% viability, HT-1080 treated with 0.2 μM RSL3"}},
  "note": "“Also recorded” adds a separate entry of the source.",
  "data": [
    {"smiles": "Cc1noc(-c2ccc(NC34CC5CC(CC(C5)C3)C4)c(NC3CCCCC3)c2)n1", "note": "[CFI-4083]", "values": [
      {"measurement": "half-life", "setting": "[1]; CD1 (mouse), mouse, human, in either mouse or human liver microsomes, read-out: T1/2", "value": "> 2", "unit": "h"},
      {"measurement": "half-life", "setting": "[1]; [9]", "value": "> 2", "unit": "h"},
      {"measurement": "half-life", "setting": "[2]", "value": "> 2", "unit": "h"}
    ]},
    {"smiles": "Nc1cc(-c2ncco2)ccc1NC1CCCCC1", "note": "[CFI-4051]", "values": [
      {"measurement": "half-life", "setting": "[1]; [9]", "value": "0.0533 to 0.055", "unit": "h"},
      {"measurement": "EC50", "setting": "HT-1080 cells [3]; [10]", "value": 36, "unit": "nM"},
      {"measurement": "EC50", "setting": "HT-1080 cells [3]; [11]", "value": 13, "unit": "nM"},
      {"measurement": "EC50", "setting": "HT-1080 cells [3]; [12]", "value": 5, "unit": "nM"},
      {"measurement": "half-life", "setting": "[4]", "value": "0.5 to 1", "unit": "h"},
      {"measurement": "half-life", "setting": "[2]", "value": "> 2", "unit": "h"},
      {"measurement": "half-life", "setting": "[5]", "value": "> 2", "unit": "h"}
    ]},
    {"smiles": "COc1cnc(NC2CCCCC2)c(NC2CCCCC2)c1", "note": "[TH-2-9-1, N^2,N^3-dicyclohexyl-5-methoxypyridine-2,3-diamine]", "values": [
      {"measurement": "death observed with RSL3", "setting": "HT-1080 cells [6]; 0.2 μM RSL3, inhibitor range 10 μM-0 μM", "value": "No death was observed"},
      {"measurement": "potency compared, in words", "setting": "HT-1080 cells [6]; 3 μM IKE, 0.2 μM RSL3, 10 μM erastin", "value": "an order of magnitude more potent than Fer-1 for all inducers beyond RSL3; also recorded: the most potent analog for RSL3 alone"},
      {"measurement": "rescue against IKE and erastin", "setting": "HT-1080 cells [6]; inhibitor 1 μM-0 μM, 3 μM IKE, 10 μM erastin, 48 hours", "value": "~50", "unit": "%"},
      {"measurement": "half-life", "setting": "[1]; [9]", "value": 0.128, "unit": "h"},
      {"measurement": "potency relative to fer-1 at suppressing ferroptosis, in words", "setting": "HT-1080 cells [7]", "value": "slightly less potent than fer-1 in inhibiting IKE-induced death"},
      {"measurement": "IC50", "setting": "HT-1080 cells [7]; ^b 2 μM IKE, 48 hours, 1,000 cells/well", "value": 16.9, "unit": "nM"},
      {"measurement": "IC50", "setting": "HT-1080 cells [7]; ^c 0.2 μM RSL3, 48 hours, 1,000 cells/well", "value": 2.7, "unit": "nM"},
      {"measurement": "EC50", "setting": "HT-1080 cells [3]; [10]", "value": 0.1, "unit": "nM"},
      {"measurement": "EC50", "setting": "HT-1080 cells [3]; [11]", "value": 0.21, "unit": "nM"},
      {"measurement": "EC50", "setting": "HT-1080 cells [3]; [12]", "value": 0.2, "unit": "nM"}
    ]},
    {"smiles": "C=C(/C=C\\CNC12CC3CC(CC(C3)C1)C2)COC(C)(C)C", "note": "[CFI-A4]", "values": [
      {"measurement": "EC50", "setting": "HT-1080 cells [3]; [11]", "value": 16, "unit": "nM"},
      {"measurement": "EC50", "setting": "HT-1080 cells [3]; [12]", "value": 1, "unit": "nM"},
      {"measurement": "Microsomal Stability t1/2", "setting": "[4]", "value": "~0.333", "unit": "h"},
      {"measurement": "Microsomal Stability t1/2", "setting": "[2]", "value": "> 2", "unit": "h"}
    ]},
    {"smiles": "CC(C)(C)OC(=O)c1ccc(NC23CC4CC(CC(C4)C2)C3)c(N=Cc2cncnc2)c1", "note": "[SRS16-86]", "values": [
      {"measurement": "decrease in potency relative to SRS11-92", "setting": "[8]", "value": "> 50", "unit": "fold"},
      {"measurement": "decrease in potency relative to fer-1", "setting": "[8]", "value": "~4", "unit": "fold"}
    ]},
    {"smiles": "CC(C)(C)OC(=O)c1cc(N)c(NC23CC4CC(CC(C4)C2)C3)cc1Cl", "note": "[CFI-A3]", "values": [
      {"measurement": "half-life", "setting": "[1]; [9]", "value": "0.27 to 0.277", "unit": "h"},
      {"measurement": "EC50", "setting": "HT-1080 cells [3]; [11]", "value": 26, "unit": "nM"},
      {"measurement": "EC50", "setting": "HT-1080 cells [3]; [12]", "value": 6, "unit": "nM"},
      {"measurement": "half-life", "setting": "[4]", "value": "0.5 to 1", "unit": "h"},
      {"measurement": "half-life", "setting": "[2]", "value": "> 2", "unit": "h"},
      {"measurement": "half-life", "setting": "[5]", "value": "> 2", "unit": "h"}
    ]},
    {"smiles": "CCCC(CC)Nc1ccc(C(=O)OC(C)(C)C)cc1Nc1ccccc1", "note": "(stereo not shown) [CFI-4081]", "values": [
      {"measurement": "Microsomal Stability t1/2", "setting": "[2]", "value": "> 2", "unit": "h"}
    ]},
    {"smiles": "CCOC(=O)c1ccc(NC2CCCCC2)c(NCc2ccccc2)c1", "note": "[SRS11-92]", "values": [
      {"measurement": "potency, in words", "setting": "[8]", "value": "low nanomolar potency"}
    ]}
  ]
}
